Measurements from ChEMBL document CHEMBL4043281, “Development of a peptide-based inducer of protein degradation targeting NOTCH1” (Bioorg Med Chem Lett, 2017).
Activity calls are given as the source filed them. The rule behind the calls is not given here. Positions of bridges follow the written chain, without caps; N, C: chain ends. Non-standard residues stand in square brackets, D forms with d. Residues, ends and D or L forms follow the SMILES beside them. Dip = N[C@H](C(=O)O)C(c1ccccc1)c1ccccc1; Chg = N[C@H](C(=O)O)C1CCCCC1; S5 = C=CCCC[C@](C)(N)C(=O)O; NMeA = CN[C@@H](C)C(=O)O; AEEA = NCCOCCOCC(=O)O; βAla = NCCC(=O)O

Assays:
[1] = organism: Homo sapiens; assay: Induction of IAP-mediated NOTCH1 protein degradation in human MOLT4 cells assessed as ratio of NOTCH1 to lamin protein level at 20 uM after 6 hrs by Western blot analysis (reference value: 100%); assay type: cell-based
[2] = tested on: MOLT-4; assay: Induction of CSL protein degradation in human MOLT4 cells assessed as ratio of CSL to lamin protein level at 50 uM after 6 hrs by Western blot analysis (reference value: 100%); assay type: functional
[3] = tested on: MOLT-4; assay: Induction of CSL protein degradation in human MOLT4 cells assessed as ratio of CSL to lamin protein level at 20 uM after 6 hrs by Western blot analysis (reference value: 100%); assay type: functional
[4] = organism: Homo sapiens; assay: Induction of IAP-mediated NOTCH1 protein degradation in human MOLT4 cells assessed as ratio of NOTCH1 to lamin protein level at 100 uM after 6 hrs by Western blot analysis (reference value: 100%); assay type: cell-based
[5] = organism: Homo sapiens; assay: Induction of IAP-mediated NOTCH1 protein degradation in human MOLT4 cells assessed as ratio of NOTCH1 to lamin protein level at 50 uM after 6 hrs by Western blot analysis (reference value: 100%); assay type: cell-based
[6] = tested on: MOLT-4; assay: Induction of CSL protein degradation in human MOLT4 cells assessed as ratio of CSL to lamin protein level at 100 uM after 6 hrs by Western blot analysis (reference value: 100%); assay type: functional
[7] = tested on: MOLT-4; assay: Cytotoxicity against human MOLT4 cells at >100 uM; assay type: cell-based
[8] = organism: Homo sapiens; assay: Induction of IAP-mediated NOTCH1 protein degradation in human MOLT4 cells assessed as reduction in c-Myc level by measuring ratio of c-Myc to beta-actin protein level at 80 uM after 8 hrs by Western blot analysis (reference value: 100%); assay type: cell-based
[9] = organism: Homo sapiens; assay: Induction of IAP-mediated NOTCH1 protein degradation in human MOLT4 cells assessed as ratio of NOTCH1 to lamin protein level at 60 uM after 6 hrs in presence of proteasome inhibitor MG132 by Western blot analysis (reference value: 100%); assay type: cell-based
[10] = organism: Homo sapiens; assay: Induction of IAP-mediated NOTCH1 protein degradation in human MOLT4 cells assessed as ratio of NOTCH1 to lamin protein level at 80 uM after 6 hrs by Western blot analysis (reference value: 100%); assay type: cell-based
[11] = organism: Homo sapiens; assay: Antagonist activity IAP in human MOLT4 cells assessed as reduction in cIAP1 protein level at 50 to 80 uM after 6 hrs by Western blot analysis; assay type: cell-based
[12] = tested on: MOLT-4; assay: Induction of CSL protein degradation in human MOLT4 cells assessed as ratio of CSL to lamin protein level at 60 uM after 6 hrs by Western blot analysis (reference value: 100%); assay type: functional
[13] = organism: Homo sapiens; assay: Induction of IAP-mediated NOTCH1 protein degradation in human MOLT4 cells assessed as ratio of NOTCH1 to lamin protein level at 80 uM after 6 hrs in presence of proteasome inhibitor MG132 by Western blot analysis (reference value: 100%); assay type: cell-based
[14] = organism: Homo sapiens; assay: Induction of IAP-mediated NOTCH1 protein degradation in human MOLT4 cells assessed as reduction in c-Myc level at 80 uM by Western blot analysis; assay type: cell-based; details: TDE = time-dependent effect
[15] = organism: Homo sapiens; assay: Induction of IAP-mediated NOTCH1 protein degradation in human MOLT4 cells assessed as reduction in c-Myc level by measuring ratio of c-Myc to beta-actin protein level at 80 uM after 2 hrs by Western blot analysis (reference value: 100%); assay type: cell-based
[16] = tested on: MOLT-4; assay: Induction of CSL protein degradation in human MOLT4 cells assessed as ratio of CSL to lamin protein level at 80 uM after 6 hrs by Western blot analysis (reference value: 100%); assay type: functional
[17] = organism: Homo sapiens; assay: Induction of IAP-mediated NOTCH1 protein degradation in human MOLT4 cells assessed as reduction in c-Myc level by measuring ratio of c-Myc to beta-actin protein level at 80 uM after 10 hrs by Western blot analysis (reference value: 100%); assay type: cell-based
[18] = organism: Homo sapiens; assay: Induction of IAP-mediated NOTCH1 protein degradation in human MOLT4 cells assessed as ratio of NOTCH1 to beta-actin protein level at 80 uM after 10 hrs by Western blot analysis (reference value: 100%); assay type: cell-based
[19] = tested on: MOLT-4; assay: Induction of CSL protein degradation in human MOLT4 cells assessed as ratio of CSL to lamin protein level at 50 uM after 6 hrs by Western blot analysis (reference value: 111%); assay type: functional
[20] = organism: Homo sapiens; assay: Induction of IAP-mediated NOTCH1 protein degradation in human MOLT4 cells assessed as ratio of NOTCH1 to lamin protein level at 60 uM after 6 hrs by Western blot analysis (reference value: 100%); assay type: cell-based
[21] = organism: Homo sapiens; assay: Induction of IAP-mediated NOTCH1 protein degradation in human MOLT4 cells assessed as ratio of NOTCH1 to beta-actin protein level at 80 uM after 2 hrs by Western blot analysis (reference value: 100%); assay type: cell-based
[22] = organism: Homo sapiens; assay: Induction of IAP-mediated NOTCH1 protein degradation in human MOLT4 cells assessed as ratio of NOTCH1 to lamin protein level at 50 uM after 6 hrs by Western blot analysis (reference value: 91%); assay type: cell-based
[23] = organism: Homo sapiens; assay: Induction of IAP-mediated NOTCH1 protein degradation in human MOLT4 cells assessed as ratio of NOTCH1 to beta-actin protein level at 80 uM after 6 hrs by Western blot analysis (reference value: 100%); assay type: cell-based
[24] = tested on: MOLT-4; assay: Induction of CSL protein degradation in human MOLT4 cells assessed as ratio of CSL to lamin protein level at 100 uM after 6 hrs by Western blot analysis (reference value: 111%); assay type: functional
[25] = organism: Homo sapiens; assay: Induction of IAP-mediated NOTCH1 protein degradation in human MOLT4 cells assessed as ratio of NOTCH1 to beta-actin protein level at 80 uM after 8 hrs by Western blot analysis (reference value: 100%); assay type: cell-based
[26] = tested on: MOLT-4; assay: Induction of CSL protein degradation in human MOLT4 cells assessed as ratio of CSL to lamin protein level at 20 uM after 6 hrs by Western blot analysis (reference value: 111%); assay type: functional
[27] = organism: Homo sapiens; assay: Induction of IAP-mediated NOTCH1 protein degradation in human MOLT4 cells assessed as ratio of NOTCH1 to lamin protein level at 100 uM after 6 hrs by Western blot analysis (reference value: 91%); assay type: cell-based
[28] = tested on: MOLT-4; assay: Induction of CSL protein degradation in human MOLT4 cells assessed as ratio of CSL to lamin protein level at 70 uM after 6 hrs by Western blot analysis (reference value: 100%); assay type: functional
[29] = organism: Homo sapiens; assay: Induction of IAP-mediated NOTCH1 protein degradation in human MOLT4 cells assessed as ratio of NOTCH1 to lamin protein level at 70 uM after 6 hrs in presence of proteasome inhibitor MG132 by Western blot analysis (reference value: 100%); assay type: cell-based
[30] = organism: Homo sapiens; assay: Induction of IAP-mediated NOTCH1 protein degradation in human MOLT4 cells assessed as reduction in c-Myc level by measuring ratio of c-Myc to beta-actin protein level at 80 uM after 4 hrs by Western blot analysis (reference value: 100%); assay type: cell-based
[31] = organism: Homo sapiens; assay: Induction of IAP-mediated NOTCH1 protein degradation in human MOLT4 cells assessed as ratio of NOTCH1 to lamin protein level at 70 uM after 6 hrs by Western blot analysis (reference value: 100%); assay type: cell-based
[32] = organism: Homo sapiens; assay: Induction of IAP-mediated NOTCH1 protein degradation in human MOLT4 cells assessed as reduction in c-Myc level by measuring ratio of c-Myc to beta-actin protein level at 80 uM after 6 hrs by Western blot analysis (reference value: 100%); assay type: cell-based
[33] = organism: Homo sapiens; assay: Induction of IAP-mediated NOTCH1 protein degradation in human MOLT4 cells assessed as ratio of NOTCH1 to lamin protein level at 20 uM after 6 hrs by Western blot analysis (reference value: 91%); assay type: cell-based
[34] = organism: Homo sapiens; assay: Induction of IAP-mediated NOTCH1 protein degradation in human MOLT4 cells assessed as ratio of NOTCH1 to beta-actin protein level at 80 uM after 4 hrs by Western blot analysis (reference value: 100%); assay type: cell-based

CC[C@H](C)[C@H](NC(=O)[C@H](CCCNC(=N)N)NC(=O)[C@H](CCCNC(=N)N)NC(=O)[C@H](CCCNC(=N)N)NC(=O)[C@H](CC(C)C)NC(=O)[C@H](CCCNC(=N)N)NC(=O)[C@H](CCC(=O)O)NC(=O)CCN)C(=O)N[C@@H](CCC(=O)O)C(=O)N[C@@H](CC(C)C)C(=O)N[C@@H](CS)C(=O)N[C@@H](CCCNC(=N)N)C(=O)N[C@@H](CCCNC(=N)N)C(=O)N[C@@H](Cc1cnc[nH]1)C(=O)N[C@@H](Cc1cnc[nH]1)C(=O)N[C@@H](CO)C(=O)N[C@H](C(=O)O)[C@@H](C)O (H-[βAla]ERLRRRIELCRRHHST-OH)
Ratio [1]: 101%
Ratio [2]: 115%
Ratio [3]: 107%
Ratio [4]: 108%
Ratio [5]: 118%
Ratio [6]: 113%
Activity [7]: Toxic

CC[C@H](C)[C@H](NC(=O)[C@H](CCCNC(=N)N)NC(=O)[C@H](CCCNC(=N)N)NC(=O)[C@H](CCCNC(=N)N)NC(=O)[C@H](CC(C)C)NC(=O)[C@H](CCCNC(=N)N)NC(=O)[C@H](CCC(=O)O)NC(=O)CCN)C(=O)N[C@@]1(C)CCC/C=C\CCC[C@@](C)(C(=O)N[C@@H](CCCNC(=N)N)C(=O)N[C@@H](Cc2cnc[nH]2)C(=O)N[C@@H](Cc2cnc[nH]2)C(=O)N[C@@H](CO)C(=O)N[C@H](C(=O)O)[C@@H](C)O)NC(=O)[C@H](CS)NC(=O)[C@H](CC(C)C)NC1=O (H-[βAla]ERLRRRI[S5]LC[S5]RHHST-OH; staple (Z) 9-12)
Ratio [1]: 101%
Ratio [2]: 94%
Ratio [3]: 105%
Ratio [4]: 103%
Ratio [5]: 105%
Ratio [6]: 93%
Activity [7]: Toxic

CC[C@H](C)[C@H](NC(=O)[C@H](CCCNC(=N)N)NC(=O)[C@H](CCCNC(=N)N)NC(=O)[C@H](CCCNC(=N)N)NC(=O)[C@H](CC(C)C)NC(=O)[C@H](CCCNC(=N)N)NC(=O)[C@H](CCC(=O)O)NC(=O)CCNC(=O)COCCOCCNC(=O)COCCOCCNC(=O)[C@@H](NC(=O)[C@@H]1CCCN1C(=O)[C@@H](NC(=O)[C@H](C)NC)C1CCCCC1)C(c1ccccc1)c1ccccc1)C(=O)N[C@@]1(C)CCC/C=C\CCC[C@@](C)(C(=O)N[C@@H](CCCNC(=N)N)C(=O)N[C@@H](Cc2cnc[nH]2)C(=O)N[C@@H](Cc2cnc[nH]2)C(=O)N[C@@H](CO)C(=O)N[C@H](C(=O)O)[C@@H](C)O)NC(=O)[C@H](CS)NC(=O)[C@H](CC(C)C)NC1=O (H-[NMeA][Chg]P[Dip][AEEA][AEEA][βAla]ERLRRRI[S5]LC[S5]RHHST-OH; staple (Z) 15-18)
Ratio [8]: 56%
Ratio [9]: 92%
Ratio [10]: 48 to 67%
Ratio [2]: 110%
inhibition [11]: Active
Ratio [12]: 108%
Ratio [13]: 110%
Activity [14]: Tde
Ratio [15]: 62%
Ratio [16]: 118%
Ratio [17]: 43%
Ratio [18]: 43%
Ratio [19]: 99%
Ratio [20]: 72 to 75%
Ratio [21]: 67%
Ratio [22]: 76%
Ratio [23]: 54%
Ratio [24]: 83%
Ratio [25]: 56%
Ratio [5]: 88%
Ratio [26]: 114%
Ratio [27]: 30%
Ratio [28]: 112%
Activity [7]: Toxic
Ratio [29]: 108%
Ratio [30]: 73%
Ratio [31]: 63 to 70%
Ratio [32]: 63%
Ratio [33]: 99%
Ratio [34]: 52%
